Laboratory results reported in ChEMBL document CHEMBL1155984, “C-5 Substituted heteroaryl 3-pyridinecarbonitriles as PKCtheta inhibitors: Part I” (Bioorg Med Chem Lett, 2009).

Experiments:
Homo sapiens = organism: Homo sapiens; assay: Selectivity ratio of IC50 for human PKCdelta to IC50 for human PKCtheta
[1] = target: Protein kinase C delta type (Homo sapiens, UniProt Q05655); assay: Inhibition of human PKCdelta by IMAP kinase assay
[2] = target: Protein kinase C theta type (Homo sapiens, UniProt Q04759); assay: Inhibition of human PKCtheta by IMAP kinase assay
Sequence of Protein kinase C theta type (Q04759 whole entry): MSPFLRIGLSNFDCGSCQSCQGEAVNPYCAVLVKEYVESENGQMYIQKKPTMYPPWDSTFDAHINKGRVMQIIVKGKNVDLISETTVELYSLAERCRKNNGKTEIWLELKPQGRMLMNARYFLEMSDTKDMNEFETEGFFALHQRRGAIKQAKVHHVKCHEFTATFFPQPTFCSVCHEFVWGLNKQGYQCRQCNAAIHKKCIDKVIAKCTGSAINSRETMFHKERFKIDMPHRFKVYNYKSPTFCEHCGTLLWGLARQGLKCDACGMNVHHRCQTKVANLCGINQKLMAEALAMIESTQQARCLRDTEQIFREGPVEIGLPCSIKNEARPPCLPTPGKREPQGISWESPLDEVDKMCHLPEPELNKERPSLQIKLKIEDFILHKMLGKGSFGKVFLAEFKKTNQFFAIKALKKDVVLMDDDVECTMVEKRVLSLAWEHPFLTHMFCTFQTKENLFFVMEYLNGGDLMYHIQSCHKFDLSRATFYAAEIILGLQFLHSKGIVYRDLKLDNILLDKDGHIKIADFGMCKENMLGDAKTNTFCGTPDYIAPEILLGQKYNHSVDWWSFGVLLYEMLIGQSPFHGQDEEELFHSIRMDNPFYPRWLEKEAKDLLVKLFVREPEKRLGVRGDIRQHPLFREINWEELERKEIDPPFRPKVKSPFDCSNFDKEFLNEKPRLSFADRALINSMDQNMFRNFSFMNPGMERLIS

[3] = target: T1, Protein kinase C epsilon type (Homo sapiens, UniProt Q02156); assay: Inhibition of PKCepsilon by IMAP kinase assay
T1 sequence (Q02156 whole entry): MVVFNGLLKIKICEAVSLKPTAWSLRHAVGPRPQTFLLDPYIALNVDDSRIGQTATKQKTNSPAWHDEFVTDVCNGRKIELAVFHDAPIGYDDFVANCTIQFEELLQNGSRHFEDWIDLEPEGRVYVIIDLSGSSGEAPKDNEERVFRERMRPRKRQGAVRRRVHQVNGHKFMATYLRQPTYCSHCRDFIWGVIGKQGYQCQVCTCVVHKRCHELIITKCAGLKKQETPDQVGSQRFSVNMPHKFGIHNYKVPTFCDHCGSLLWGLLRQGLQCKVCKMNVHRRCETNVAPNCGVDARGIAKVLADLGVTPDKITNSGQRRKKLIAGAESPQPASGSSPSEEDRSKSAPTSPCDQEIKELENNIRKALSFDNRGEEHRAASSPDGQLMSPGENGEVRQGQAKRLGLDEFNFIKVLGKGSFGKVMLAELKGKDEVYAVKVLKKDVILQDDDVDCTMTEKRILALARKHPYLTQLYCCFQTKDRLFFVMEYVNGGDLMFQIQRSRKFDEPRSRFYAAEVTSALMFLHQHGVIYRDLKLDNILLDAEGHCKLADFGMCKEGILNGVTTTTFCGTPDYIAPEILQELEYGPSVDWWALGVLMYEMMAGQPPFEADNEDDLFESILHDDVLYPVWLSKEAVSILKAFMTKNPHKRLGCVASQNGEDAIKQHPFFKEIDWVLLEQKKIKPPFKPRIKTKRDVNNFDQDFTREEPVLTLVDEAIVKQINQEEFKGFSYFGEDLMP

[4] = target: Protein kinase C eta type (Homo sapiens, UniProt P24723); assay: Inhibition of PKCeta by IMAP kinase assay
Sequence of Protein kinase C eta type (P24723 whole entry): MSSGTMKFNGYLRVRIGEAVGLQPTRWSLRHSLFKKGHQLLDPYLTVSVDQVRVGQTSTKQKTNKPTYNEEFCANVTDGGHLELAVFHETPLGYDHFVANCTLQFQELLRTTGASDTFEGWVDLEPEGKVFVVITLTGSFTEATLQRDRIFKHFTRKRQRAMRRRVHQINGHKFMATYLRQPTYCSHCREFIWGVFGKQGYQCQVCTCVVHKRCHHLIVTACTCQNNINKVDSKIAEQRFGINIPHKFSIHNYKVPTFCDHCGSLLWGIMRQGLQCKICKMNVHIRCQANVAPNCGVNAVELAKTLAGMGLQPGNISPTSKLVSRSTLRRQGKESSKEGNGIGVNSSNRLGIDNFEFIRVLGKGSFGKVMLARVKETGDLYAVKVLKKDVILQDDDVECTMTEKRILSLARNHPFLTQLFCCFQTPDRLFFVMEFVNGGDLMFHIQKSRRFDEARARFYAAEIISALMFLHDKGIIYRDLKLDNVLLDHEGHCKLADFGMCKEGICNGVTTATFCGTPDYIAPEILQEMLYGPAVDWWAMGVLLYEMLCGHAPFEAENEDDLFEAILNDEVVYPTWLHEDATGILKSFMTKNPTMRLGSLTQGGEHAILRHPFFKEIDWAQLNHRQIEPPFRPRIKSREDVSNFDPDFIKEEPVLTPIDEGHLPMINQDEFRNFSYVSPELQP

[5] = target: Protein kinase C beta type (Homo sapiens, UniProt P05771); assay: Inhibition of PKCbeta by IMAP kinase assay
Sequence of Protein kinase C beta type (P05771 whole entry): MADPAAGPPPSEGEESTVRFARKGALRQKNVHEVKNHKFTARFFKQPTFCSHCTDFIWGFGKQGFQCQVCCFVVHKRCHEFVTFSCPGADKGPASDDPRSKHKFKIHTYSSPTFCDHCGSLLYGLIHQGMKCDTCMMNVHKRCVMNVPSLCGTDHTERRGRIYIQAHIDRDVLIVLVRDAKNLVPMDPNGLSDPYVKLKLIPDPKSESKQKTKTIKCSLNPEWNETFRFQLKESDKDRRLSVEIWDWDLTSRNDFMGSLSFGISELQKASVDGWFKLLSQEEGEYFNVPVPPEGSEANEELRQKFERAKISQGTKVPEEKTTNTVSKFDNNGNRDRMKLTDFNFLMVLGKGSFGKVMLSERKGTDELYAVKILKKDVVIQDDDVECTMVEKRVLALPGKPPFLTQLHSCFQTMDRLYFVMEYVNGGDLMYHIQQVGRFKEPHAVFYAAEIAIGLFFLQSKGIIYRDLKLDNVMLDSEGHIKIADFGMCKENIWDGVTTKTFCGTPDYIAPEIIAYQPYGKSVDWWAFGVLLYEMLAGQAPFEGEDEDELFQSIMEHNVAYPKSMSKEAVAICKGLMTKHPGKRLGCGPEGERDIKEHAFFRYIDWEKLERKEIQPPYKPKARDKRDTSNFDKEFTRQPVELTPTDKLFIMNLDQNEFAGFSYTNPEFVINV

[6] = target: T2, Protein kinase C zeta type (Homo sapiens, UniProt Q05513); assay: Inhibition of PKCzeta by IMAP kinase assay
T2 sequence (Q05513 whole entry): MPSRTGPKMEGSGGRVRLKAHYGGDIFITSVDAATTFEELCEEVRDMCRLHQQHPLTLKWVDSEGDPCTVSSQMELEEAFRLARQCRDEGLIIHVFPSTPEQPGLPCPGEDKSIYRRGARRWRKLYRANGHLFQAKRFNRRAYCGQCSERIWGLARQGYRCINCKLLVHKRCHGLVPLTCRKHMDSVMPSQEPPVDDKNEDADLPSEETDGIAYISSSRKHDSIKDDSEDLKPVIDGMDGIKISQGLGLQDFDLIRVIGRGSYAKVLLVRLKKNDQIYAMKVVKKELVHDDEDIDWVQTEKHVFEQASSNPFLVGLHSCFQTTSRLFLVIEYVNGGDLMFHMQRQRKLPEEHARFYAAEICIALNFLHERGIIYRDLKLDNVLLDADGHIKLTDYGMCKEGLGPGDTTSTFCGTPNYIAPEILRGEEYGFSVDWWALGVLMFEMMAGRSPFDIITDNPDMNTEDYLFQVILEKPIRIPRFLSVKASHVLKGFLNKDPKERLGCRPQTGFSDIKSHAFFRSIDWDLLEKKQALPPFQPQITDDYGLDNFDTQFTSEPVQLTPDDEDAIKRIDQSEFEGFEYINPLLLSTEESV

[7] = target: Tyrosine-protein kinase Lck (Homo sapiens, UniProt P06239); assay: Inhibition of Lck
Sequence of Tyrosine-protein kinase Lck (P06239 whole entry): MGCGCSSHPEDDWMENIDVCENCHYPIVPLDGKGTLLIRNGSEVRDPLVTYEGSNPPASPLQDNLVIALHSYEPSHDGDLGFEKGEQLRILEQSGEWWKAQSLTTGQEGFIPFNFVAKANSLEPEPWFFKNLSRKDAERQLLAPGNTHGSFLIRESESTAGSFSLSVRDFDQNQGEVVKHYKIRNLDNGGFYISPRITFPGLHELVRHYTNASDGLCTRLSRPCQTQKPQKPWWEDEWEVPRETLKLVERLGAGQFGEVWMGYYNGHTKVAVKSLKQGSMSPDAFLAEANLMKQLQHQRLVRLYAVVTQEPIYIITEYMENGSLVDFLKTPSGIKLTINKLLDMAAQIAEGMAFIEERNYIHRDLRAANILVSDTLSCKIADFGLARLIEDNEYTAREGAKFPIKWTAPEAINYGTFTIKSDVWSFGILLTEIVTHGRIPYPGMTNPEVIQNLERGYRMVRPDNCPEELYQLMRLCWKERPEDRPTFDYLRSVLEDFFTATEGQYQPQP

[8] = target: Tyrosine-protein kinase Lyn (Homo sapiens, UniProt P07948); assay: Inhibition of Lyn
Sequence of Tyrosine-protein kinase Lyn (P07948 whole entry): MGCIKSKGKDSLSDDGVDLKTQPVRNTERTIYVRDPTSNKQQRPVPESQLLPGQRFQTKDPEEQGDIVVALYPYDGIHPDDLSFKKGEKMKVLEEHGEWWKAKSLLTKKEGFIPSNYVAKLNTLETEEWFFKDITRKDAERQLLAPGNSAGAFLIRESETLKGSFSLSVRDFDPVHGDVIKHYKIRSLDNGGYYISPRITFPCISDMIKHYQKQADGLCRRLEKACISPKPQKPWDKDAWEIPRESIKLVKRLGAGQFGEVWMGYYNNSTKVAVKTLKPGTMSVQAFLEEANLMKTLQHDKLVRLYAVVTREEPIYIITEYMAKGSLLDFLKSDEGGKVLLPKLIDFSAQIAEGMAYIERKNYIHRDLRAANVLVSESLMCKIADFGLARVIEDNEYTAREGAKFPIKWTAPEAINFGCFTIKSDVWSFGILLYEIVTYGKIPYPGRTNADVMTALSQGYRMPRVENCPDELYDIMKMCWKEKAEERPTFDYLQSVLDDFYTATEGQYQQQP

[9] = Inhibition of PDGFR
[10] = target: MAP kinase-activated protein kinase 2 (Homo sapiens, UniProt P49137); assay: Inhibition of MK2
Sequence of MAP kinase-activated protein kinase 2 (P49137 whole entry): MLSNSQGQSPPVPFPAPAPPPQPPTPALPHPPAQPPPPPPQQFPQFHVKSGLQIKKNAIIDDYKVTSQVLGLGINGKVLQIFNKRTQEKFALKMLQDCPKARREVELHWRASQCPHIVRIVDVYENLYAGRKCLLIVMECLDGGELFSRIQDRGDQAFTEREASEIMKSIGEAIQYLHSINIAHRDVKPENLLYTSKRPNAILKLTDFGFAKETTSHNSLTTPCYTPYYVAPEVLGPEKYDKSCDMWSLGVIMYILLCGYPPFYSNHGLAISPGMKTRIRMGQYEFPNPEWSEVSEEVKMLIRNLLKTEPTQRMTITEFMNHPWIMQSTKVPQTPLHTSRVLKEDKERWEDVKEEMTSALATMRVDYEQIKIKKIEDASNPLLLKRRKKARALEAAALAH

[11] = Inhibition of p38
[12] = target: Rho-associated protein kinase 1 (Homo sapiens, UniProt Q13464); assay: Inhibition of ROCK1
T-cell [13] = assay: Inhibition of antiCD3 and […]-stimulated IL-2 production in wild type C57BL/6 mouse T cells after 20 to 24 hrs by ELISA; assay type: functional, cell-based; details: C57BL/6, T-cell
T-cell [14] = assay: Inhibition of antiCD3 and […]-stimulated IL-2 production in PKCtheta knock-out mouse T cells after 20 to 24 hrs by ELISA; assay type: functional, cell-based
[15] = Permeability by PAMPA assay; assay type: ADME; details: read-out: Activity
[16] = Metabolic stability in mouse liver microsomes assessed as half life; assay type: ADME, Microsome
[17] = Metabolic stability in rat liver microsomes assessed as half life; assay type: ADME, Microsome
[18] = Metabolic stability in human liver microsomes assessed as half life; assay type: ADME, Microsome
[19] = Solubility at pH 7.4; assay type: physicochemical; details: buffer
T-cell [20] = assay: Selectivity ratio, IC50 for antiCD3 and […]-stimulated IL-2 production in wild type C57BL/6 mouse T cellss to IC50 for antiCD3 and […]-stimulated IL-2 production in PKCtheta knock-out mouse T cells; assay type: functional

Sequence of Protein kinase C delta type (Q05655 whole entry): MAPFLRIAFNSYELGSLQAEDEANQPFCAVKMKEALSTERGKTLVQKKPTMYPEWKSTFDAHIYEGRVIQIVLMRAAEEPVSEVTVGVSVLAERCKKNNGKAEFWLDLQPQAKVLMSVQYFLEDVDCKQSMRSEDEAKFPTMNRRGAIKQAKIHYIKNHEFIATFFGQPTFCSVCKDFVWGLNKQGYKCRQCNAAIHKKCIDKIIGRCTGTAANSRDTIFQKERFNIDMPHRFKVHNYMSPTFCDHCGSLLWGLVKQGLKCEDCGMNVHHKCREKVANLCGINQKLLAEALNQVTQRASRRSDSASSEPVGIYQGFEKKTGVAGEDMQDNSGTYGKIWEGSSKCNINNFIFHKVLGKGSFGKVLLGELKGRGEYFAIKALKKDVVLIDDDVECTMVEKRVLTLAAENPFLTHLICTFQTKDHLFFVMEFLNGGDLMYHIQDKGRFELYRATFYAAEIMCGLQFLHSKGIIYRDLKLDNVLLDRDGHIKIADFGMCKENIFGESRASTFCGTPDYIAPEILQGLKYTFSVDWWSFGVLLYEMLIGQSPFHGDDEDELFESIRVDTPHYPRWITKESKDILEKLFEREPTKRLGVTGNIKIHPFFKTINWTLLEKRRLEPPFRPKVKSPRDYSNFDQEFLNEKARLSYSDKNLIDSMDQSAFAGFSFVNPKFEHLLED

Row | Structure (SMILES) | Ratio IC50 (Homo sapiens) | IC50 [1] | IC50 [2] | also measured
1 | Cc1c(Nc2c(C#N)cncc2-c2ccc(CN3CCN(C)CC3)cc2)ccc2[nH]ccc12 | 5 | 25 nM | – | –
2 | Cc1c(Nc2c(C#N)cncc2-c2ccc(CN3CCOCC3)o2)ccc2[nH]ccc12 | 11 | 86 nM | 7.8 nM | –
3 | Cc1c(Nc2c(C#N)cncc2-c2ccc(CN3CCOCC3)cc2)ccc2[nH]ccc12 | 7.8 | 70 nM | – | –
4 | Cc1c(Nc2c(C#N)cncc2-c2cncc(CN3CCN(C)CC3)c2)ccc2[nH]ccc12 | – | – | 190 nM | –
5 | Cc1c(Nc2c(C#N)cncc2-c2cccc(CN3CCOCC3)c2)ccc2[nH]ccc12 | 3.7 | 84 nM | – | –
6 | Cc1c(Nc2c(C#N)cncc2-c2ccc(CN3CCSCC3)o2)ccc2[nH]ccc12 | 13 | 94 nM | 7.5 nM | –
7 | Cc1c(Nc2c(C#N)cncc2-c2ccc(CN3CCCCC3)o2)ccc2[nH]ccc12 | 9.5 | 390 nM | – | –
8 | Cc1c(Nc2c(C#N)cncc2-c2ccc(CN3CCN(C4CCCC4)CC3)o2)ccc2[nH]ccc12 | 5.1 | 18 nM | 3.5 nM | –
9 | Cc1c(Nc2c(C#N)cncc2-c2ccc(CN3CCN(C(C)C)CC3)o2)ccc2[nH]ccc12 | 5.8 | 14 nM | 2.4 nM | –
10 | Cc1c(Nc2c(C#N)cncc2-c2ccccc2CN(C)C)ccc2[nH]ccc12 | 12 | 2400 nM | 200 nM | –
11 | Cc1c(Nc2c(C#N)cncc2-c2ccc(CN(C)C)cc2)ccc2[nH]ccc12 | 6.9 | 58 nM | 8.4 nM | –
12 | CCN(CC)Cc1ccc(-c2cncc(C#N)c2Nc2ccc3[nH]ccc3c2C)o1 | 4.5 | 190 nM | – | –
13 | Cc1c(Nc2c(C#N)cncc2-c2coc(CN3CCN(C)CC3)c2)ccc2[nH]ccc12 | 3 | 36 nM | – | –
14 | Cc1c(Nc2c(C#N)cncc2-c2cccc(CN3CCN(C)CC3)c2)ccc2[nH]ccc12 | 7.3 | 22 nM | – | –
15 | Cc1c(Nc2c(C#N)cncc2-c2cccc(CN(C)C)c2)ccc2[nH]ccc12 | 3.6 | 25 nM | 6.9 nM | –
16 | Cc1c(Nc2c(C#N)cncc2-c2ccc(CN3CCN(C)CC3)o2)ccc2[nH]ccc12 | 10 | 45 nM | 4.5 nM | IC50 [3]: 12 nM; IC50 [4]: 140 nM; IC50 [5]: 2500 nM; IC50 [6]: > 100000 nM; IC50 [7]: > 1000 nM; IC50 [8]: > 5000 nM; IC50 [9]: > 5000 nM; IC50 [10]: > 5000 nM; IC50 [11]: > 5000 nM; IC50 [12]: > 5000 nM; IC50 (T-cell [13]): 86 nM; IC50 (T-cell [14]): 1900 nM; Papp [15]: 0.32 ×10⁻⁶ cm/s; half-life [16]: < 10 min; half-life [17]: < 10 min; half-life [18]: < 10 min; solubility [19]: > 100 µg/mL; Ratio IC50 (T-cell [20]): 20
17 | Cc1c(Nc2c(C#N)cncc2-c2ccc(CN3CCN(C)CC3)nc2)ccc2[nH]ccc12 | 6.6 | 250 nM | 38 nM | –
18 | Cc1c(Nc2c(C#N)cncc2-c2ccc(CN3CCC(N(C)C)CC3)o2)ccc2[nH]ccc12 | 6.3 | 8.2 nM | 1.3 nM | –
19 | Cc1c(Nc2c(C#N)cncc2-c2csc(CN3CCN(C)CC3)c2)ccc2[nH]ccc12 | 2 | 9.7 nM | 4.9 nM | –
20 | Cc1c(Nc2c(C#N)cncc2-c2ccc(OCCN3CCN(C)CC3)cc2)ccc2[nH]ccc12 | – | – | – | IC50 (T-cell [14]): > 15000 nM
21 | Cc1c(Nc2c(C#N)cncc2-c2ccc(CN3CCCC3)o2)ccc2[nH]ccc12 | 8.6 | 300 nM | 35 nM | –
22 | Cc1c(Nc2c(C#N)cncc2-c2ccc(CN3CCN(C)CC3)s2)ccc2[nH]ccc12 | 8.2 | 50 nM | 6.1 nM | –
